Results on 2 compounds are retold here after paper PMC11845761, “Intestinal human carboxylesterase 2 (CES2) expression rescues drug metabolism and most metabolic syndrome phenotypes in global Ces2 cluster knockout mice” (Acta Pharmacologica Sinica, 2024).

Each structure is given as a SMILES string.

For series [1] the following is noted: irinotecan i.v. or orally administered; Ces2^–/– vs wild-type mice; data not shown.
Series [2] is described as follows: Plasma pharmacokinetics of capecitabine and its metabolites after oral capecitabine in CES2-modified mice. Format: in vivo, mouse. The conditions noted are these: oral capecitabine 500 mg/kg, plasma. Here is the method: (§1) For capecitabine 2-h experiments, 6–7 female mice received oral capecitabine (500 mg/kg, 10 μL/g), and tail vein blood samples were collected at 0.125, 0.25, 0.5 and 1 h after drug administration. For the vinorelbine 4-h experiment, 6-7 male mice received vinorelbine intravenously (10 mg/kg, 5 μL/g) or orally (10 mg/kg, 10 μL/g) using a blunt-ended needle. Tail vein blood samples were collected at 0.125, 0.25, 0.5, 1 and 2 h after drug administration. […] At the last time point in each experiment (2 or 4 h), mice were anesthetized with 5% isoflurane and blood was collected by cardiac puncture. […] Plasma was isolated from the blood by centrifugation at 9000 × g for 6 min at 4 °C, and the plasma fraction was collected and stored at −30 °C until analysis.
(§2) Concentrations of capecitabine (and its metabolites) and vinorelbine (and its metabolite) in mouse plasma samples and organ homogenates were determined using two independent validated high-performance liquid chromatography-tandem mass spectrometry assays.
(§3) Pharmacokinetic parameters were calculated by non-compartmental methods using the PK solver software. […] Differences were considered statistically significant when P < 0.05. All data are presented as mean ± SD.

Series [3] in a line: Tissue concentrations of capecitabine and its metabolites 2 h after oral capecitabine in CES2-modified mice. Format: in vivo, mouse. The conditions noted are these: oral capecitabine 500 mg/kg. Here is the method:
as §1, §2, §3

Regarding `CCc1c2c(nc3ccc(O)cc13)-c1cc3c(c(=O)n1C2)COC(=O)[C@]3(O)CC` [SN-38], in series [1], the “effect of mCes2 cluster knockout on plasma levels” value is on record as “no significant effect”.
The Cmax is the highest concentration seen after dosing. For orientation: Tmax means the time at which the peak concentration occurs. Take `NCC(F)C(=O)O` (centres unmarked) [FBAL]: in series [2] (female Ces2^–/– mice), the AUC0-2h came to 1833 ± 504 ng·h/mL, the “AUC0-2h ratio (metabolite/capecitabine)” value is recorded as 0.07 ± 0.04, the Cmax is reported as 1684 ± 597 ng/mL and the Tmax was determined as 2.0 ± 0.0 h. In series [2] (female Ces2^–/–A mice), the AUC0-2h is 2910 ± 671 ng·h/mL, the “AUC0-2h ratio (metabolite/capecitabine)” value is recorded as 0.12 ± 0.06, the Cmax is listed as 2923 ± 760 ng/mL and the Tmax is 1.8 ± 0.4 h. In addition, in series [2] (female Ces2^–/–V mice), the AUC0-2h turned out to be 2874 ± 659 ng·h/mL, the “AUC0-2h ratio (metabolite/capecitabine)” value was 0.20 ± 0.09, the Cmax was found to be 2606 ± 698 ng/mL and the time to peak (Tmax) stood at 2.0 ± 0.0 h. For the same compound, in series [2] (female wild-type mice), the AUC0-2h worked out at 1966 ± 158 ng·h/mL, the “AUC0-2h ratio (metabolite/capecitabine)” value was 0.35 ± 0.08, the Cmax is reported as 1755 ± 308 ng/mL and the Tmax is on record as 2.0 ± 0.0 h. Besides, in series [3] (female Ces2^–/– mice), the “CSI (small intestine tissue concentration)” value (from here on “CSI”) was found to be 1239 ± 335 ng/g, the “Ccolon (colon concentration)” value was found to be 1355 ± 281 ng/g, the “Cliver (liver concentration)” value amounted to 59839 ± 11722 ng/g and the “Colon concentration ratio (metabolite/capecitabine)” value stood at 0.12 ± 0.05. In addition, in series [3] (female Ces2^–/– mice), the “Liver concentration ratio (metabolite/capecitabine)” value is 4.2 ± 2.7 and the “Small intestine concentration ratio (metabolite/capecitabine)” value is 0.08 ± 0.05. Besides, in series [3] (female Ces2^–/–A mice), the “CSI” value is 2193 ± 960 ng/g, the “Ccolon (colon concentration)” value came to 2105 ± 600 ng/g, the “Cliver (liver concentration)” value is reported as 102959 ± 17203 ng/g and the “Colon concentration ratio (metabolite/capecitabine)” value is 0.24 ± 0.02. Further, in series [3] (female Ces2^–/–A mice), the “Liver concentration ratio (metabolite/capecitabine)” value was determined as 25 ± 11 and the “Small intestine concentration ratio (metabolite/capecitabine)” value is 0.15 ± 0.04. Besides, in series [3] (female Ces2^–/–V mice), the “CSI” value is reported as 1830 ± 655 ng/g, the “Ccolon (colon concentration)” value amounted to 2080 ± 446 ng/g, the “Cliver (liver concentration)” value worked out at 77125 ± 16534 ng/g and the “Colon concentration ratio (metabolite/capecitabine)” value is on record as 0.60 ± 0.36^###^. In series [3] (female Ces2^–/–V mice), the “Liver concentration ratio (metabolite/capecitabine)” value is on record as 18 ± 16 and the “Small intestine concentration ratio (metabolite/capecitabine)” value is recorded as 1.5 ± 2.0^###^^^. For the same compound, in series [3] (female wild-type mice), the “CSI” value is listed as 1174 ± 174 ng/g, the “Ccolon (colon concentration)” value worked out at 1322 ± 249 ng/g, the “Cliver (liver concentration)” value worked out at 55840 ± 13861 ng/g and the “Colon concentration ratio (metabolite/capecitabine)” value came to 0.62 ± 0.16. Besides, in series [3] (female wild-type mice), the “Liver concentration ratio (metabolite/capecitabine)” value amounted to 48 ± 19 and the “Small intestine concentration ratio (metabolite/capecitabine)” value turned out to be 0.86 ± 0.38.
